Test results as given in US6803359B2, “Inhibition of abnormal cell growth with corticotropin-releasing hormone analogs” (The Regents of the University of California, priority 1999, dated 2004).
Marks after values point to notes of the source that are not given here.

Legend:
[1] = test system: B16 melanoma; experiment: Growth of subcutaneously transplanted B16 melanoma in mice (tumor volume by caliper); type: in vivo; conditions: 0.1 mg/kg s.c. on days 3 to 7
Method: (§1) This example illustrates the anti-cancer property of an inventive peptide with a D-amino acid as residue 20. Various tumor cells were transplanted into mice or rats and the tumor volume was measured using a caliper-ruler. The volume of the tumor, in cubic mm, was estimated as the long axis×the square of the short axis divided by 2.
In the experiment of Table 2, female mice, weighing 20-25 g, of a C57B1 line, were transplanted under the skin with B16 melanoma cells. After transplantation of tumors mice were mixed and divided into groups of controls, CRH-treated and [D-Glu^20] CRH-treated. The test substances at a dose of 0.1 mg/kg subcutaneously or the vehicle control (saline) was injected on days 3 to 7 after tumor transplantation, and the volume of tumors were measured at various days afterwards.

[2] = Hypotensive effect in pentobarbital-anesthetized male rats after i.v. injection; conditions: 0.05 mg/kg i.v.
Method: (§3) On the ordinate, the response is given in units of integrated blood pressure observed over a 100 minute period after the intravenous injection of the test substance is pentobarbital-anesthetized rats (no. of animals=8 per group per dose). The area-under-curve, is given in units of mm Hg per minute.

[3] = test system: Ehrlich solid carcinoma; experiment: Growth of subcutaneously transplanted Ehrlich solid carcinoma in rats (tumor volume); type: in vivo; conditions: 0.1 mg/kg
Method: as §1
(§2) The second experiment and third experiment (data shown in Tables 3 and 4) were conducted on white non-inbred male rats with a subcutaneous transplant of Walker carcinosarcoma or Ehrlich solid carcinoma. Animals after transplantation of tumors were mixed and were divided into groups of controls, CRH-treated and [D-Glu^20] CRH-treated.

[4] = test system: W256 rat mammary carcinoma; conditions: 100 micrograms/kg subcutaneously twice a day for 3 days; cited from earlier work
[5] = test system: Walker carcinosarcoma; experiment: Growth of subcutaneously transplanted Walker carcinosarcoma in rats (tumor volume); type: in vivo; conditions: 0.1 mg/kg
Method: as §1, §2

[6] = test system: W256 cells; conditions: in vitro; cited from earlier work
[7] = in vivo, iv
Method: as §3

Molecule | Volume of Tumors ([1]; day 10 after transplantation) | Volume of Tumors ([1]; day 12 after transplantation) | Volume of Tumors ([1]; day 14 after transplantation) | Volume of Tumors ([1]; day 17 after transplantation) | average fall in mean blood pressure over a 100 minute period [2] [mm Hg] | integrated blood pressure response (area-under-curve) over a 100 minute period [2] | Volume of Tumors ([3]; day 9 after transplantation) | Volume of Tumors ([3]; day 11 after transplantation) | Volume of Tumors ([3]; day 14 after transplantation) | inhibition of growth of intracerebrally-injected W256 tumor cells [4] | Volume of Tumors ([5]; day 7 after transplantation) [mm^3] | Volume of Tumors ([5]; day 10 after transplantation) [mm^3] | Volume of Tumors ([5]; day 12 after transplantation) [mm^3] | Volume of Tumors ([5]; day 14 after transplantation) [mm^3] | antiproliferative effects in W256 cell cultures [6] | hypotensive activity compared with unmodified CRH (human/rat) control [7]
hCRH: unmodified human/rat corticotropin-releasing hormone, 41-residue C-terminally amidated peptide, SEQ ID NO 1 | 29 + 7* mm^3 | 157 + 23* mm^3 | 133 + 15* mm^3 | 238 + 41 mm^3 | 72 | approximately 7200 mm Hg-min | 226 ± 14* mm^3 | 384 ± 61* mm^3 | 763 ± 114* mm^3 | significant inhibition of growth | 196 | 3600 ± 413 | 6942 | 10832 | antiproliferative effects | –
CC[C@H](C)[C@H](NC(=O)[C@@H](NC(=O)[C@H](CCC(=O)O)NC(=O)[C@H](CCSC)NC(=O)[C@H](CC(C)C)NC(=O)[C@H](CCCCN)NC(=O)[C@H](CCCNC(=N)N)NC(=O)[C@H](CC(N)=O)NC(=O)[C@H](CO)NC(=O)[C@H](Cc1c[nH]cn1)NC(=O)[C@H](C)NC(=O)[C@H](CCC(N)=O)NC(=O)[C@H](CCC(N)=O)NC(=O)[C@H](C)NC(=O)[C@H](CC(C)C)NC(=O)[C@H](CCC(N)=O)NC(=O)[C@H](CCC(=O)O)NC(=O)[C@H](C)NC(=O)[C@H](CCCNC(=N)N)NC(=O)[C@H](C)NC(=O)[C@H](CCSC)NC(=O)[C@@H](CCC(=O)O)NC(=O)[C@H](CC(C)C)NC(=O)[C@@H](NC(=O)[C@H](CCC(=O)O)NC(=O)[C@H](CCCNC(=N)N)NC(=O)[C@H](CC(C)C)NC(=O)[C@H](CC(C)C)NC(=O)[C@H](Cc1c[nH]cn1)NC(=O)[C@H](Cc1ccccc1)NC(=O)[C@@H](NC(=O)[C@H](CC(C)C)NC(=O)[C@H](CC(=O)O)NC(=O)[C@H](CC(C)C)NC(=O)[C@H](CO)NC(=O)[C@@H](NC(=O)[C@@H]1CCCN1C(=O)[C@@H]1CCCN1C(=O)[C@H](CCC(=O)O)NC(=O)[C@H](CCC(=O)O)NC(=O)[C@@H](N)CO)[C@@H](C)CC)[C@@H](C)O)C(C)C)[C@@H](C)CC)C(N)=O [[D-Glu^20] CRH] | – | – | – | – | – | – | – | – | – | – | – | – | – | – | – | much less hypotensive activity
